Results reported in US20190054064A1, “VITAMIN C AND VITAMIN K COMPOUND FOR TREATING PANCREATIC CANCER” (IC-MedTech Corp., priority 2014, published 2019).
Starred links: 1 amine or outer side, 2 acyl side, 3 side chain; linkers in the order of their positions; H or OH if unused. Positions of bridges follow the written chain, without caps; N, C: chain ends. Non-standard residues stand in square brackets, D forms with d. Residues, ends and D or L forms follow the SMILES beside them. Chains are numbered I, II in the order given. Actinocin(9to1) = Cc1c2oc3c(C)ccc(C(=O)[*:1])c3nc-2c(C(=O)[*:2])c(N)c1=O; NMeV = CN[C@H](C(=O)O)C(C)C; Sar = CNCC(=O)O

Assays:
[1] = tested on: human pancreatic cancerous cell line MIA PaCa-2; experiment: Soft agar growth assay (Alamar Blue), Example 1; assay type: cell-based; conditions: 240 h, MIA PaCa-2, soft agar, 10 days
Procedure: The effects of vitamins C and K3, alone or in combination, on pancreatic cancer were studied using human pancreatic cancerous cell line MIA PaCa-2. The pancreatic cancerous cells were cultured in DMEM containing 10% FCS and penicillin/streptomycin.
Vitamins C and K3 stock solutions in DMSO were prepared at a concentration of 2 M and 20 mM, respectively. Actinomycin D was used as a reference.
Prior to addition to the pancreatic cancerous cells, stock solutions of the test compounds (vitamins C and K3, and actinomycin D) were diluted in culture medium and 10 μL were added on top of 150 μL of solidified soft agar to diffuse into the soft agar in a 96-well plate. For each well in the 96-well plate, 100 μL of the soft agar bottom layer (0.6% final concentration in complete medium) was poured and left to solidify, and 50 μL of the soft agar top layer (0.4% final concentration) containing the pancreatic cancerous cells (about 5,000 cells/well) were then added on top, solidified. The 96-well plate was incubated overnight at 37° C., 10% CO2. The next day, the test compounds were added at the prescribed final concentrations into the inner wells of the plate. Subsequently, the assays were incubated in cell culture incubators for 10 days. […] Fluorescence intensity was then determined (excitation: 560 nm; emission: 590 nm). […]

AsPC-1 = experiment: Soft agar growth assay (Alamar Blue), Example 2, AsPC-1; assay type: cell-based, human; conditions: AsPC-1, soft agar, 10 days
Procedure: (§1) A stock solutions (1,000×) of menadione (VK3) were prepared in DMSO and a stock solution of calcium L-ascorbate dihydrate (VC) (1,000×) was prepared in water. All stock solutions were prediluted 1:62.5 first in medium and finally diluted to the final assay concentrations. Actinomycin D was used as a reference.
(§2) Suspension cell culture plates (96-well) were prepared. The soft agar bottom layer (100 μL, 0.6% final concentration in complete medium) was poured and left to solidify. The soft agar top layer (50 μL, 0.4% final concentration) containing the corresponding cells and cell number were then added on top, solidified, and incubated overnight at 37° C., 10% CO2. Next day, the test compounds, DMSO, or actinomycin D were added at predetermined final concentrations. […] Finally, the assay was developed using Alamar Blue and upon 0.5-5 hrs of incubation at 37° C. and fluorescence intensity was determined (excitation: 560 nm; emission: 590 nm). […]
(§3) Raw data were converted into percent soft agar growth relative to high controls (solvent 0.2% DMSO) and low controls (10^−5M staurosporine), which were set to 100% and 0%, respectively. IC50 values were calculated using standard parameters based on the signal of the solvent control as top constraint (100% soft agar growth) and the signal of the Staurosporine control as bottom constraint (0% soft agar growth).

Mia PaCa-2 = experiment: Soft agar growth assay (Alamar Blue), Example 2, Mia PaCa-2; assay type: cell-based, human; conditions: Mia PaCa-2, soft agar, 8 days
Procedure: as §1, §2, §3

SMILES	viability at 0.6 µM ([1]; 0.6 μM Vitamin K3 alone) [%]	viability at 6 µM ([1]; 6 μM Vitamin K3 alone) [%]	IC50 (AsPC-1) [nM]	IC50 (Mia PaCa-2) [nM]
CC1=CC(=O)c2ccccc2C1=O [Vitamin K3, 2-methyl-1,4-naphthoquinone]	103.2 ± 0.9	90.2 ± 12.5		
Cc1c2oc3c(C)ccc(C(=O)N[C@@H]4C(=O)N[C@H](C(C)C)C(=O)N5CCC[C@H]5C(=O)N(C)CC(=O)N(C)[C@@H](C(C)C)C(=O)O[C@@H]4C)c3nc-2c(C(=O)N[C@@H]2C(=O)N[C@H](C(C)C)C(=O)N3CCC[C@H]3C(=O)N(C)CC(=O)N(C)[C@@H](C(C)C)C(=O)O[C@@H]2C)c(N)c1=O [Actinomycin D] (I: T[dV]P[Sar][NMeV] / II: T[dV]P[Sar][NMeV]; ester I:1-I:C, II:1-II:C; linker I:N-II:N via Actinocin(9to1))			2.7	0.4
